The results in this text go back to ChEMBL document CHEMBL1201862, “PubChem BioAssay data set” (2004).

Among the test systems are OVCAR-3; HL-60; A549; SF-295; SN12C; DU-145; 786-0; OVCAR-4; IGROV-1; ACHN; HCT-116; SF-268; CCRF-CEM; SNB-19; PC-3; SK-OV-3; BT-549; SR; TK-10; MCF7.
Common to all, as to experiment: inhibition of tumour cell growth, NCI panel, 48 h

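Assay format: 96-well plates, 48-hour exposure. GI50 = concentration required for 50% inhibition of growth.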 The source made the active and inactive calls. No stated cut-off is given here; in the data, active = GI50 up to about 1.1 µM and inactive = higher. Some results are limits rather than exact numbers.

For `O=C1N[C@H]2c3c(Cl)sc(Cl)c3C(=O)[C@H]2O1`, the GI50 is 17.3 µM (inactive) with OVCAR-3; 1.79 µM (inactive) with HL-60; 36.8 µM (inactive) in the test with A549; 18.8 µM (inactive) in the test with SF-295; 8.71 µM (inactive) in the test on SN12C; 23.4 µM (inactive) in the test with DU-145. For the same compound, the GI50 is 20.2 µM (inactive) in the test on 786-0; 21.9 µM (inactive) with OVCAR-4; 3.55 µM (inactive) in the test with IGROV-1; 13.4 µM (inactive) in the test with ACHN; 3.64 µM (inactive) in the test with HCT-116; 17 µM (inactive) with SF-268. Moreover, the GI50 in the test on CCRF-CEM is 2.58 µM (inactive); in the test with SNB-19, 20.6 µM (inactive); in the test on PC-3 it was 18.2 µM (inactive); in the test with SK-OV-3, 23.1 µM (inactive); in the test on BT-549 it was 22.3 µM (inactive); in the test with SR it was 2.09 µM (inactive). Also, the GI50 with TK-10 is 64.1 µM (inactive); with MCF7 it was 39.8 µM (inactive).
Turning to `c1ccc2c(c1)N=c1ccccc1=P21c2ccccc2Nc2ccccc21`, the GI50 was 0.301 µM (active) with OVCAR-3; 0.186 µM (active) with HL-60; 0.232 µM (active) with A549; 0.942 µM (active) with SF-295; 1.5 µM (inactive) in the test on SN12C; 0.388 µM (active) in the test on DU-145. Moreover, the GI50 was 1.03 µM (active) in the test on 786-0; 0.601 µM (active) in the test on OVCAR-4; 0.352 µM (active) in the test on IGROV-1; 2.4 µM (inactive) in the test with ACHN; 0.242 µM (active) in the test with HCT-116; 0.614 µM (active) with SF-268. Also, the GI50 with CCRF-CEM was 0.174 µM (active); in the test on SNB-19, 0.325 µM (active); with PC-3, 0.242 µM (active); in the test with SK-OV-3, 0.265 µM (active); with BT-549 it was 0.372 µM (active); with SR, 0.31 µM (active). The results for the GI50 in the test with TK-10 and in the test with MCF7 were 0.998 µM (active) and 0.457 µM (active), respectively.
As for `N#Cc1c(-c2ccc([N+](=O)[O-])cc2)cc(-c2ccc(Nc3ccnc4cc(Cl)ccc34)cc2)nc1N`, the GI50 is 6.67 µM (inactive) with OVCAR-3; 12.4 µM (inactive) in the test with HL-60; 3.98 µM (inactive) in the test on A549; 19 µM (inactive) with SF-295; 4.81 µM (inactive) with SN12C; 11 µM (inactive) in the test on DU-145. In addition, the GI50 is 0.989 µM (active) in the test on 786-0; 2.82 µM (inactive) in the test on OVCAR-4; 3.22 µM (inactive) in the test with IGROV-1; 30.5 µM (inactive) with ACHN; 2.3 µM (inactive) in the test with HCT-116; 14.9 µM (inactive) with SF-268. In addition, the GI50 in the test on CCRF-CEM is 1.11 µM (active); with SNB-19, 25.2 µM (inactive); with PC-3, 6.49 µM (inactive); in the test with SK-OV-3, 32 µM (inactive); in the test on BT-549, 51.1 µM (inactive); in the test with SR, 0.399 µM (active). Moreover, the values for the GI50 in the test on TK-10 and with MCF7 were 25.9 µM (inactive) and 1.61 µM (inactive), respectively.
Turning to `CCCc1nnc2sc(COc3cc(Cl)c(OCc4nn5c(CCC)nnc5s4)cc3Cl)nn12`, the GI50 in the test with OVCAR-3 is 24.8 µM (inactive); with HL-60, 25.6 µM (inactive); in the test with A549, 35.2 µM (inactive); with SF-295 it was 28.6 µM (inactive); with SN12C it was 57 µM (inactive); in the test with DU-145, 47 µM (inactive). Also, the GI50 with 786-0 is 35.7 µM (inactive); in the test on OVCAR-4 it was 22.5 µM (inactive); in the test on IGROV-1, 25.2 µM (inactive); in the test on ACHN it was 25.4 µM (inactive); with HCT-116 it was 46 µM (inactive); in the test with SF-268 it was 21.7 µM (inactive). Further, the GI50 with CCRF-CEM was 15.6 µM (inactive); in the test on SNB-19, 31.5 µM (inactive); in the test with PC-3, > 100 µM (inactive); with SK-OV-3 it was 24.5 µM (inactive); in the test on BT-549, 29.2 µM (inactive); in the test on SR, 0.046 µM (active). The figures for the GI50 in the test on TK-10 and in the test on MCF7 were 52 µM (inactive) and 23.6 µM (inactive), respectively.
Consider `O=C(O)[C@@H]1C[C@@H](O)CN1`, for which the GI50 in the test on OVCAR-3, with HL-60, in the test on A549, in the test on SF-295, with SN12C and with DU-145 was > 100 µM (inactive) in each case. For the same compound, the GI50 in the test on 786-0, in the test on OVCAR-4, with IGROV-1, in the test with ACHN, with HCT-116 and in the test with SF-268 was > 100 µM (inactive) throughout. Moreover, the GI50 in the test with CCRF-CEM, in the test with SNB-19, with PC-3, in the test on SK-OV-3, with BT-549 and in the test with SR was > 100 µM (inactive) throughout. In addition, the GI50 in the test on TK-10 and in the test on MCF7 was > 100 µM (inactive) throughout.
For `C=CCNC1=C2C[C@@H](C)C[C@@H](OC)[C@H](OC(=O)CN)[C@H](C)/C=C(\C)[C@@H](OC(N)=O)[C@H](OC)/C=C\C=C(/C)C(=O)NC(=CC1=O)C2=O`, the GI50 is 1.16 µM (inactive) in the test on OVCAR-3; 1.69 µM (inactive) in the test on HL-60; 0.359 µM (active) in the test on A549; 0.488 µM (active) in the test on SF-295; 0.497 µM (active) with SN12C; 0.783 µM (active) in the test on DU-145. For the same compound, the GI50 in the test on 786-0 is 1.49 µM (inactive); with OVCAR-4, 4.35 µM (inactive); with IGROV-1, 0.927 µM (active); in the test with ACHN it was 5.13 µM (inactive); in the test on HCT-116, 0.575 µM (active); in the test on SF-268 it was 5.73 µM (inactive). For the same compound, the GI50 is 1.27 µM (inactive) in the test with CCRF-CEM; 5.4 µM (inactive) with SNB-19; 0.4 µM (active) in the test on PC-3; 0.162 µM (active) with SK-OV-3; 10.3 µM (inactive) with BT-549; 0.134 µM (active) in the test on SR. Moreover, the GI50 with TK-10 was 0.355 µM (active); with MCF7 it was 0.162 µM (active).
For the compound `O=C(O)CC1OCC=C2CN3CCC45c6ccccc6NC4C1C2CC35` (stereo not given), the GI50 with OVCAR-3, in the test on HL-60, in the test on A549, in the test with SF-295, in the test with SN12C and in the test on DU-145 was > 100 µM (inactive) throughout. In addition, the GI50 in the test with 786-0, with OVCAR-4, with IGROV-1, in the test with ACHN, in the test on HCT-116 and in the test on SF-268 was > 100 µM (inactive) each time. Further, the GI50 in the test on CCRF-CEM, in the test with SNB-19, in the test on PC-3, in the test with SK-OV-3, in the test on BT-549 and in the test with SR was > 100 µM (inactive) each time. Further, the GI50 with TK-10 and in the test on MCF7 was > 100 µM (inactive) each time.
As to `CCCCNC(=O)OCCN=c1c2ccccc2ccc2ccccc12`, the GI50 in the test with OVCAR-3, in the test with HL-60, in the test on A549, in the test with SF-295, in the test with SN12C and in the test with DU-145 was > 100 µM (inactive) in each case. Besides, the GI50 with 786-0, with OVCAR-4, with IGROV-1, with ACHN, in the test on HCT-116 and in the test on SF-268 was > 100 µM (inactive) in each case. Also, the GI50 with CCRF-CEM, with SNB-19, with PC-3, in the test on SK-OV-3, in the test on BT-549 and with SR was > 100 µM (inactive) each time. Further, the GI50 in the test with TK-10 and with MCF7 was > 100 µM (inactive) throughout.
With `COc1cc2c(cc1C[N+](C)(C)CSc1ccccc1)-c1ccccc1CC2`, the GI50 with OVCAR-3 was 2.29 µM (inactive); in the test with HL-60, 0.721 µM (active); with A549, 19 µM (inactive); in the test on SF-295 it was 12.2 µM (inactive); in the test with SN12C it was 6.21 µM (inactive); in the test on DU-145, 8.61 µM (inactive). In addition, the GI50 was 6.07 µM (inactive) in the test on 786-0; 5.98 µM (inactive) with OVCAR-4; 2.47 µM (inactive) in the test on IGROV-1; 15.3 µM (inactive) in the test with ACHN; 2.24 µM (inactive) with HCT-116; 5.32 µM (inactive) in the test on SF-268. Moreover, the GI50 with CCRF-CEM is 3.64 µM (inactive); with SNB-19 it was 4.28 µM (inactive); with PC-3 it was 2.61 µM (inactive); with SK-OV-3, 12.6 µM (inactive); with BT-549, 3.89 µM (inactive); in the test on SR, 2.01 µM (inactive). Besides, the GI50 with TK-10 was 8.77 µM (inactive); in the test on MCF7, 5 µM (inactive).
For the compound `CC1(C)OC(CP(c2ccccc2)c2ccccc2)C(CP(c2ccccc2)c2ccccc2)O1` (stereo not given), the GI50 was 0.0535 µM (active) in the test on OVCAR-3; 0.0443 µM (active) in the test with HL-60; 0.27 µM (active) with A549; 0.544 µM (active) with SF-295; 1.32 µM (inactive) in the test on SN12C; 2.23 µM (inactive) in the test with DU-145. Further, the GI50 with 786-0 was 1.83 µM (inactive); with OVCAR-4, 0.986 µM (active); in the test on IGROV-1, 0.222 µM (active); in the test on ACHN, 2.12 µM (inactive); in the test on HCT-116 it was 0.165 µM (active); in the test on SF-268, 3.81 µM (inactive). In addition, the GI50 in the test with CCRF-CEM is 0.794 µM (active); with SNB-19 it was 0.601 µM (active); in the test on PC-3 it was 0.0548 µM (active); with SK-OV-3 it was 3.55 µM (inactive); with BT-549, 2.93 µM (inactive); with SR, 0.552 µM (active). Also, the figures for the GI50 in the test with TK-10 and in the test on MCF7 were > 19.8 µM (inactive) and 0.0869 µM (active), respectively.
